Patent US20240109937A1, “BINDING PEPTIDES AND USES THEREOF” (The Johns Hopkins University, priority 2021, published 2024)

Key:
[1] = system: HT-22 cells; conditions: cited from earlier work
[2] = system: Dsg2^mut/mut ES-CMs; assay: FACS analysis of apoptosis (AnnexinV/propidium iodide) in ISO/Ca2+-treated ES-CMs; type: cell-based, mouse; conditions: 7 days, 5 μM or 25 μM peptide
Description: Mouse embryonic stem cells (ESs) were maintained and differentiated, and the absence of mycoplasma contamination was confirmed prior to experimental studies. Briefly, mouse ESs from both WT and Dsg2^mut/mut mice were derived from E3.5 embryos and maintained on gelatin-coated dishes in maintenance medium (Glasgow minimum essential medium supplemented with 10% fetal bovine serum and 3 μM Chir99021 and 1 μM PD98059 or 1000 U/ml ESGRO; Millipore), Glutamax, sodium pyruvate, and MEM non-essential amino acids (Thermo Fisher Scientific). For cardiomyocyte (CM) differentiation, ESs were plated in IMDM/Ham's F12 (Cellgro, at 3:1) supplemented with N2, B27, penicillin/streptomycin, 2 mM GlutaMAX, 0.05% BSA, 5 ng/ml L-ascorbic acid (Sigma-Aldrich), and α-monothioglycerol (MTG; Sigma-Aldrich) at a final density of 100,000 cells/ml to allow spheroid formation. After 48 hours, embryoid bodies were collected and transferred to ultra-low attachment plastic surface and induced for 40 hours with Activin A and Bmp4 (R&D Systems). Cells were then dissociated and plated as monolayers for 48 hours in the presence of 10 μM XAV to allow cardiomyocyte differentiation. […] (4) After 7 days of treatment, ES-CMs were stained with AnnexinV in a buffer containing 10 mM HEPES (pH 7.4), 140 mM NaCl, 2.5 mM CaCl2, followed by the addition of 1 mg/ml propidium iodide and analyzed by flow cytometry.

[3] = system: HMGB1; assay: HMGB1 cytosolic/nuclear levels in ISO/Ca2+-treated ES-CMs; type: cell-based, mouse; conditions: ISO/Ca2+-treated Dsg2^mut/mut ES-CMs, 7 days, peptide
Description: Mouse embryonic stem cells (ESs) were maintained and differentiated, and the absence of mycoplasma contamination was confirmed prior to experimental studies. Briefly, mouse ESs from both WT and Dsg2^mut/mut mice were derived from E3.5 embryos and maintained on gelatin-coated dishes in maintenance medium (Glasgow minimum essential medium supplemented with 10% fetal bovine serum and 3 μM Chir99021 and 1 μM PD98059 or 1000 U/ml ESGRO; Millipore), Glutamax, sodium pyruvate, and MEM non-essential amino acids (Thermo Fisher Scientific). For cardiomyocyte (CM) differentiation, ESs were plated in IMDM/Ham's F12 (Cellgro, at 3:1) supplemented with N2, B27, penicillin/streptomycin, 2 mM GlutaMAX, 0.05% BSA, 5 ng/ml L-ascorbic acid (Sigma-Aldrich), and α-monothioglycerol (MTG; Sigma-Aldrich) at a final density of 100,000 cells/ml to allow spheroid formation. After 48 hours, embryoid bodies were collected and transferred to ultra-low attachment plastic surface and induced for 40 hours with Activin A and Bmp4 (R&D Systems). Cells were then dissociated and plated as monolayers for 48 hours in the presence of 10 μM XAV to allow cardiomyocyte differentiation. The resulting ES-CMs were cultured 45 days before experimental procedures were performed. […]

[4] = system: tAIF; assay: Nuclear import and localization of tAIF in ISO/Ca2+-treated ES-CMs; type: cell-based, mouse; conditions: ISO/Ca2+-treated Dsg2^mut/mut ES-CMs, 7 days
Description: Mouse embryonic stem cells (ESs) were maintained and differentiated, and the absence of mycoplasma contamination was confirmed prior to experimental studies. Briefly, mouse ESs from both WT and Dsg2^mut/mut mice were derived from E3.5 embryos and maintained on gelatin-coated dishes in maintenance medium (Glasgow minimum essential medium supplemented with 10% fetal bovine serum and 3 μM Chir99021 and 1 μM PD98059 or 1000 U/ml ESGRO; Millipore), Glutamax, sodium pyruvate, and MEM non-essential amino acids (Thermo Fisher Scientific). […]
All myocardium (sedentary and exercised mouse cohorts and patient myocardial biopsies) were formalin-fixed and paraffin-embedded (FFPE). […] Following three additional washes, ProLong Gold Antifade Mountant with DAPI (Thermofisher, 936931) were applied, and slides were coverslipped, and immunoreactive signal was detected via laser scanning microscopy (Zeiss LSM 510 Meta). […]
Following immunostaining, AIF-fluorescence and nuclear fluorescence (DAPI) were detected via laser scanning microscopy (Zeiss LSM 510 Meta) via a sequential fashion to avoid crosstalk between fluorophores. Merged images were obtained using Zeiss LSM software, and approximately 3-10 Regions of Interest (ROIs) were assessed per condition (mouse myocardium and patient myocardial biopsies). […]

[5] = biological target: PPIA (Homo sapiens, UniProt P62937); conditions: read-out: KD, affinity to PPIA-binding; cited from earlier work
Sequence of PPIA (P62937 whole entry, species assumed): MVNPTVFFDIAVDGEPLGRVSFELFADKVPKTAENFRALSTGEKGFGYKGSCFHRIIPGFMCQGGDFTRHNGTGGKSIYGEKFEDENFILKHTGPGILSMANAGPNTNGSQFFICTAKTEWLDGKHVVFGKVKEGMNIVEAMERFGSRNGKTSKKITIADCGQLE

Substance | neuroprotective effects in HT-22 cells during the oxidative stress [1] | apoptosis (FACS) [2] | increased cytosolic and decreased nuclear HMGB1 levels [3] | PPIA-mediated nuclear import of tAIF (immunoblot) [4] | tAIF nuclear localization (immunostaining) [4] | Kd [5] [µM]
Ac-CIKLKDGRKVC-NH2 [AIF (381-389) ox, Cyclic peptide, 11 amino acids long] | provides neuroprotective | – | – | – | – | –
NH2-GRKKRRQRRR(βAla)QSVGVSSGKLLIKLKDGRKVETDHI-NH2 (GRKKRRQRRRAQSVGVSSGKLLIKLKDGRKVETDHI; C-terminal amide; MOD_RES (11)..(11) 1,2-dihydro-3(6h)-pyridinone beta-alanine) [TAT-AIF (370-394), Linear peptide, 38 amino acids long, N-terminal TAT fragment for cell uptake] | – | attenuated | prevented | precluded | precluded | 12
